From ChEMBL document CHEMBL1177803, “In vitro antituberculosis activities of the constituents isolated from Haloxylon salicornicum” (2010)
Converted amounts (≈) assume the structure as drawn. The source made the active and inactive calls. The rule behind the calls is not given here.

What was measured:
[1] = tested on: Mycobacterium tuberculosis; assay: Antituberculosis activity against Mycobacterium tuberculosis H37Rv ATCC 27294 after 2 weeks by microbroth dilution method; assay type: functional; conditions: H37Rv ATCC 27294, 336 h
[2] = tested on: Mycobacterium tuberculosis; assay: Antituberculosis activity against Mycobacterium tuberculosis H37Rv ATCC 27294 in stationary phase culture at pH 5.8 up to 200 ug/ml after 3 days followed by washout from day 4 to week 4 by microbroth dilution method; assay type: functional, organism-based

| Structure (SMILES) | MIC [1] | Activity [2] |
| --- | --- | --- |
| OCCCCCCCCCCCCCCCCCCCCC1CCCCC1 | 100 µg/mL (≈ 263 µM) | inactive |
| OCCCCCCCCCCCCCCCCCCCCCCC1CCCCC1 | 100 µg/mL (≈ 245 µM) | inactive |
| CCCCCCCCCCCCCCCC(=O)O[C@H]1CC[C@]2(C)[C@H]3CC=C4[C@H]5CC(C)(C)CC[C@]5(C)CC[C@@]4(C)[C@]3(C)CC[C@H]2C1(C)C | 100 µg/mL (≈ 150 µM) | inactive |
| CC[C@H](/C=C/[C@@H](C)[C@H]1CC[C@H]2[C@@H]3CCC4=C[C@@H](O[C@@H]5O[C@H](CO)[C@@H](O)[C@H](O)[C@H]5O)CC[C@]4(C)[C@H]3CC[C@]12C)C(C)C | 100 µg/mL (≈ 174 µM) | inactive |
| CC[C@H](/C=C/[C@@H](C)[C@H]1CC[C@H]2[C@@H]3CCC4=C[C@@H](O[C@@H]5O[C@@H](C)[C@H](O)[C@@H](O)[C@H]5O)CC[C@]4(C)[C@H]3CC[C@]12C)C(C)C | 50 µg/mL (≈ 89.5 µM) | inactive |
| CCC(CC[C@@H](C)[C@H]1CC[C@H]2[C@@H]3CC=C4C=CCC[C@]4(C)[C@H]3CC[C@]12C)C(C)C (some centres not stated) | 100 µg/mL (≈ 252 µM) | inactive |
| C[C@H]1[C@H](C)CC[C@]2(C)CC[C@]3(C)C(=CC[C@@H]4[C@@]5(C)CCC[C@H](C)[C@@H]5CC[C@]43C)[C@H]12 | 100 µg/mL (≈ 252 µM) | inactive |
| CCCCC(O)CCCCCCCCCCCCCCCCCCCC(=O)CCC (configuration not stated) | 100 µg/mL (≈ 235 µM) | inactive |
| CC(C)[C@@H](C)/C=C/[C@@H](C)[C@H]1CC[C@@H]2[C@]1(C)CC=C1[C@]23C=C[C@]2(C[C@@H](O)CC[C@]12C)OO3 | 100 µg/mL (≈ 234 µM) | inactive |
| COc1c(O)cc2ccc(=O)oc2c1OC | 100 µg/mL (≈ 450 µM) | inactive |
| CC(C)[C@@H](C)/C=C/[C@@H](C)[C@H]1CC[C@@H]2[C@]1(C)CC[C@H]1[C@]23C=C[C@]2(C[C@@H](O)CC[C@]12C)OO3 [ERGOSTEROL PEROXIDE] | 100 µg/mL (≈ 233 µM) | inactive |
| O=C(/C=C\C=C/CCCCCCCCCCCCCCCCCO)N1CCCCC1 [HALOXYLINE A] | 100 µg/mL (≈ 238 µM) | inactive |
| O=C(/C=C\C=C/CCCCCCCCCCCCCCCCCO)N1CCC[C@@H](O)C1 [HALOXYLINE B] | 50 µg/mL (≈ 115 µM) | inactive |
| NNC(=O)c1ccncc1 [ISONIAZID] | 0.02 µg/mL (≈ 0.146 µM) | inactive |
| C=C(C)[C@@H]1CC[C@]2(C)CC[C@]3(C)[C@H](CC[C@@H]4[C@@]5(C)CC[C@H](OC(C)=O)C(C)(C)[C@@H]5CC[C@]43C)[C@@H]12 [LUPENYL ACETATE] | 100 µg/mL | inactive |
| C=C(C)[C@@H]1CC[C@]2(C)CC[C@]3(C)[C@H](CC[C@@H]4[C@@]5(C)CC[C@H](O)C(C)(C)[C@@H]5CC[C@]43C)[C@@H]12 [LUPEOL] | 100 µg/mL (≈ 234 µM) | inactive |
| CC[C@H](/C=C/[C@@H](C)[C@H]1CC[C@H]2[C@@H]3CC=C4C[C@@H](O[C@@H]5O[C@H](CO)[C@@H](O)[C@H](O)[C@H]5O)CC[C@]4(C)[C@H]3CC[C@]12C)C(C)C [STIGMASTEROL GLUCOSIDE] | 50 µg/mL (≈ 87 µM) | inactive |
| CC[C@H](/C=C/[C@@H](C)[C@H]1CC[C@H]2[C@@H]3CC=C4C[C@@H](O)CC[C@]4(C)[C@H]3CC[C@]12C)C(C)C [STIGMASTEROL] | 100 µg/mL (≈ 242 µM) | inactive |
| C[C@H]1[C@H](C)CC[C@]2(C(=O)O)CC[C@]3(C)C(=CC[C@@H]4[C@@]5(C)CC[C@H](O)C(C)(C)[C@@H]5CC[C@]43C)[C@H]12 [URSOLIC ACID] | 100 µg/mL (≈ 219 µM) | inactive |
| CC(=O)O[C@H]1CC[C@]2(C)[C@H]3CC=C4[C@@H]5CC(C)(C)CC[C@]5(C)CC[C@@]4(C)[C@]3(C)CC[C@H]2C1(C)C [beta-AMYRIN ACETATE] | 100 µg/mL | inactive |
| CC1(C)CC[C@]2(C)CC[C@]3(C)C(=CC[C@@H]4[C@@]5(C)CC[C@H](O)C(C)(C)[C@@H]5CC[C@]43C)[C@@H]2C1 [beta-AMYRIN] | 100 µg/mL (≈ 234 µM) | inactive |
